Measured values from article PMC4200806, “A Combined Experimental and Computational Study of Vam3, a Derivative of Resveratrol, and Syk Interaction” (International Journal of Molecular Sciences, 2014).

Target: Spleen tyrosine kinase (Syk) (Homo sapiens, UniProt P43405)
Test: in vitro kinase assay with purified recombinant Syk (ADP-Glo, poly(Glu,Tyr) substrate); Ki from ATP-competition kinetics; IC50 […]
Type: biochemical

- Ki: 0.0611 µM
Structure (SMILES): Oc1ccc(/C=C/c2cc(O)cc3oc(-c4ccc(O)cc4)c(-c4cc(O)cc(O)c4)c23)cc1 [Vam3]
